The source of these data is patent publication US7973219B2, “Method for producing transgenic plants resistant to weed control compounds which disrupt the porphyrin pathways of plants” (Sumitomo Chemical Company, Limited, priority 1998, dated 2011).

For this assay, the system named is E. coli BT3/pACYCSP+pRASSL4 strain. Description: Growth of E. coli BT3/pACYCSP+pRASSL4 with herbicidal compound. In kind it is cell-based, Escherichia coli. The note with it: 1 ppm, 18 hours culture, Table 16. The text has this:
According to the description of Gibson, L. C. D. et al., Proc. Natl. Acad. Sci. USA, 92; p 1941 (1995), the DNA fragment containing bchH gene prepared in Example 1 was digested with the restriction enzymes NdeI and BglII. The resultant DNA fragment was inserted between NdeI restriction site and BamHI restriction site of expression vector pET11a (manufactured by Stratagene) to obtain plasmid pETBCH (FIG. 1). This plasmid pETBCH was introduced into E. coli BL21(DE3) strain competent cells (manufactured by Stratagene) according to the manual attached to the competent cells to obtain E. coli BL21(DE3)/pETBCH strain. […] When the absorbance at 600 nm of the liquid culture medium became about 0.6, isopropyl β-D-thiogalactopyranoside (IPTG) was added to the liquid culture medium so that the final concentration was 0.4 mM, and the culture was continued for about additional 20 hours. […]
These E. coli strains were inoculated into YPT medium containing 1 ppm of the PPO inhibitory-type herbicidal compound represented by Structure 8, 100 μg/ml ampicillin, 15 μg/ml chloramphenicol, 10 μg/ml kanamycin, 10 μg/ml hemin and 50 μg/ml aminolevulinic acid, cultured under dark conditions or light conditions according to the same manner as in Example 2. Then, 18 hours after initiation of culture, the absorbance of the liquid culture medium was measured at 600 nm. […]

Consider `C#CCOc1cc(N2C(=O)C3=C(CCCC3)C2=O)c(F)cc1Cl` [Structure 8], for which the Relative absorbance reads like this: (in the dark) 0.98; (in the light) 1.1.
